Values of other authors in patent US20060111442A1, “Use of methyl pyruvate to increase cellular energy production downstream of glycolysis for the PARP-1 ablation of HIV without necrotic cell death caused by continuous, chronic PARP-1 activation through the concomitant depletion of ATP and NAD” (priority 2004, published 2006).
Where two headings read alike, the source gives them in different places.

Legend:
[1] = test system: LXR
[2] = 30 mg/kg i.p. 30 min prior to rosiglitazone
[3] = test system: human non-small cell lung carcinoma cell lines (H1838 and H2106)
[4] = test system: human mammary tumour cell lines
[5] = test system: hepatic stellate cells (HSC)
[6] = test system: human neuroblastoma cells (SK-N-SH and SK-N-MC); conditions: for 15-deoxy-PGJ2-induced cell growth inhibition: co-treatment
[7] = molecular target: T1, PPARgamma (Homo sapiens, UniProt P37231); design: endogenous in cells; host or cells: human mammary tumour cell lines
T1 sequence (P37231 1-505): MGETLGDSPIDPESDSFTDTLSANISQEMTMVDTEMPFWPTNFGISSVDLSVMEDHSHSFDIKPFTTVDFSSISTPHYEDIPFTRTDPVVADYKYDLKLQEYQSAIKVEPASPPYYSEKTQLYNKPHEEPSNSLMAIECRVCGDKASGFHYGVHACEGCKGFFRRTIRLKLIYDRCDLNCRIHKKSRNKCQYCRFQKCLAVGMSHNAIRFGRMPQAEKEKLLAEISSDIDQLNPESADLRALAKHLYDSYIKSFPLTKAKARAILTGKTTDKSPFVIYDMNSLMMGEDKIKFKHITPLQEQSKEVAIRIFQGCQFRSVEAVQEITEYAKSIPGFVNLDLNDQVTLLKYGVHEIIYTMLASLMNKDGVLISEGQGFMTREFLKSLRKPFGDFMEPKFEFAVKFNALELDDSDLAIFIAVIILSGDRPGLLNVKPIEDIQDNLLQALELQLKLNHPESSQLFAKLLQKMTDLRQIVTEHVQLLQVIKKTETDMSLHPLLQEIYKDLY

[8] = test system: porcine carotid artery strips; conditions: for change in resting tone: 10 mM KCl
[9] = test system: primary astrocyte cultures; conditions: for MPT and cell death: after PARP-1 activation, cyclosporin A sub-micromolar
[10] = test system: human glioblastoma cell lines (A172, U87-MG, M059K, M059J); conditions: all cell lines
[11] = test system: THP-1 monocytic cells; conditions: PMA-stimulated
[12] = test system: Mouse neuron and astrocyte cultures; conditions: for NAD(+) depletion resulting from PARP1 activation: MNNG or H(2)O(2); for poly(ADP-ribose) accumulation: during MNNG exposure, immunostaining; for Cell death: hydrogen peroxide, NMDA or MNNG exposure
[13] = molecular target: T2, PPARalpha (Homo sapiens, UniProt Q07869)
T2 construct: expressed in transfected cells
T2 sequence (Q07869 whole entry, species assumed): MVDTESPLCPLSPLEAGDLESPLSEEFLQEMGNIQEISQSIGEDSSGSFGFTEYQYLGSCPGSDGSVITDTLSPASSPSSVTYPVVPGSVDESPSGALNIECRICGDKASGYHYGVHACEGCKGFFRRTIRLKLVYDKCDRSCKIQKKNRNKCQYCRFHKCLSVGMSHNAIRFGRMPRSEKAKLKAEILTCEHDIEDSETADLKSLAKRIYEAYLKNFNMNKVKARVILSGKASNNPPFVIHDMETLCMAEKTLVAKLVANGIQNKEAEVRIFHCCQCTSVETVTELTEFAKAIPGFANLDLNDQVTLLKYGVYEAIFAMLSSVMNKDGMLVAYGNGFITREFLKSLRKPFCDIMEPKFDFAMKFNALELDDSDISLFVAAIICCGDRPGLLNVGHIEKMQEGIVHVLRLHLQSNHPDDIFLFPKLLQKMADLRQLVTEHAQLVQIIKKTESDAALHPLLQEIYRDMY

[14] = molecular target: T1, PPARgamma; design: expressed in transfected cells
[15] = mouse, in vivo
[16] = not given; remark: listed apart in the source
[17] = test system: isolated beta-cell mitochondria; conditions: with glutamate, vs pyruvate/glutamate
[18] = test system: Jurkat T-lymphocyte mitochondria
[19] = test system: pancreatic beta-cells
[20] = test system: pancreatic islets
[21] = test system: isolated rat pancreatic islets
[22] = molecular target: T3, K(ATP) channels (Homo sapiens, UniProt Q09428+Q14654); conditions: standard whole-cell configuration
T3 construct: endogenous in cells; host or cells: pancreatic beta-cells
T3 sequence (Q14654 whole entry): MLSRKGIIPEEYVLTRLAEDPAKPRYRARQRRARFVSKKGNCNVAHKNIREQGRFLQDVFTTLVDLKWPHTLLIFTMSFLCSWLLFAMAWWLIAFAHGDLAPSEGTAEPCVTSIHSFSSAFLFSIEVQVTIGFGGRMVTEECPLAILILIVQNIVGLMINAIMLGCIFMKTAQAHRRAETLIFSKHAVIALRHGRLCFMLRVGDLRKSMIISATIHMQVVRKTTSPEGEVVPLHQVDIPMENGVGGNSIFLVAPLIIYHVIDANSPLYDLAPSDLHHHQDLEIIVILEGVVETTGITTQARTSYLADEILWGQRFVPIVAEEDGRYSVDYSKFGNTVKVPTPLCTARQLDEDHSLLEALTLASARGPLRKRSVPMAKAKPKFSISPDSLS
T3 sequence (Q09428 whole entry): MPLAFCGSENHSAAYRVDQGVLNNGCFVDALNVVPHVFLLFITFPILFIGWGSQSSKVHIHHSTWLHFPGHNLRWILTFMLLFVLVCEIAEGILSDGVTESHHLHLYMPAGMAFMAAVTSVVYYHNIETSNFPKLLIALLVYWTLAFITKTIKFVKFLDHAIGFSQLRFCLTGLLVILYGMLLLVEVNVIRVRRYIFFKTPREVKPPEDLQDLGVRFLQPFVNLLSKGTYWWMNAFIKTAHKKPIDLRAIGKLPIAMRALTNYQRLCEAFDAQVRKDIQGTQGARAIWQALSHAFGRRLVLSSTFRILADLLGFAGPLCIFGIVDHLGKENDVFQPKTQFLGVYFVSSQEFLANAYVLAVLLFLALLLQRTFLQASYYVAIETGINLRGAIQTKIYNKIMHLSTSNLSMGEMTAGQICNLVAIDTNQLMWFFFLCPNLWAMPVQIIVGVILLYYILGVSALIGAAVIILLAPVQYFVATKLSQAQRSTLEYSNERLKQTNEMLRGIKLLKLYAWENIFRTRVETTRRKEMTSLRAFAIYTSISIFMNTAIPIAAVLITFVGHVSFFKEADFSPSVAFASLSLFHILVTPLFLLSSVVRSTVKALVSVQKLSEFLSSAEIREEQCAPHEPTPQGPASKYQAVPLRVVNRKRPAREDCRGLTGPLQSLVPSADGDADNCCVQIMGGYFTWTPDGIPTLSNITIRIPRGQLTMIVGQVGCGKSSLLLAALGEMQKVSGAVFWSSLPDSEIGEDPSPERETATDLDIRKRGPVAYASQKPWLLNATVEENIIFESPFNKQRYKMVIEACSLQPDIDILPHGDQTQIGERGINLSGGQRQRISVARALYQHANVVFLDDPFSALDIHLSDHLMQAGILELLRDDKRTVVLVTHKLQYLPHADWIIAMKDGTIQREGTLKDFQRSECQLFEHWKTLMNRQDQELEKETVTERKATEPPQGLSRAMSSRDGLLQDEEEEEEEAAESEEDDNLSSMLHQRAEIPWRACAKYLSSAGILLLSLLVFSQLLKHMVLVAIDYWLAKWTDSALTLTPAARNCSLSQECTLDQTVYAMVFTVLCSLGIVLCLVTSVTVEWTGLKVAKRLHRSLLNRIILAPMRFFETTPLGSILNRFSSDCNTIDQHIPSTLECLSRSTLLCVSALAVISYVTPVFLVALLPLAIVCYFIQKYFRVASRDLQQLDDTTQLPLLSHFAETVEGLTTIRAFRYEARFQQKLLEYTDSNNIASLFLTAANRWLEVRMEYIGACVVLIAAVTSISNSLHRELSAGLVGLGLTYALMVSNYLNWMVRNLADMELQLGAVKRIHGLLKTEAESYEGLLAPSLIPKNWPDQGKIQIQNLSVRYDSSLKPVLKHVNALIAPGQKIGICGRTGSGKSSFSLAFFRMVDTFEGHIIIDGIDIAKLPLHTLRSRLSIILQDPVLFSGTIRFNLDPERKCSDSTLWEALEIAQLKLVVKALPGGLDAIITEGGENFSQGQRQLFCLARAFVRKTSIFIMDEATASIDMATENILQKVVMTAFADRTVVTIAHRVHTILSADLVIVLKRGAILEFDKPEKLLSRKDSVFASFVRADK

[23] = test system: human coronary VSMCs
[24] = test system: rat aortic vascular smooth muscle cell; conditions: 0.1-10 microM
[25] = test system: porcine carotid arteries
[26] = human, in vivo

For `CC(C)CC[C@@H](O)[C@@H](C)[C@H]1CC[C@H]2[C@@H]3CC=C4C[C@@H](O)CC[C@]4(C)[C@H]3CC[C@]12C` [22(R)-hydroxycholesterol], the “suppressive effects of LXRs on PPARa-induced PPRE-luciferase activity” value [1] is listed as “dose dependently enhanced”.
In the case of `CC(C)(c1ccc(OCC2CO2)cc1)c1ccc(OCC2CO2)cc1` (stereo not shown) [BADGE, bisphenol A diglycidyl ether], the “protective effect of rosiglitazone or 15d-PGJ2 against gut I/R” value (1 mg kg-1 i.v. 30 min prior to agonist) is given as “abolished the protective effect” and the “anti-inflammatory effects of rosiglitazone” value [2] is given as “abolished the anti-inflammatory effects”.
In the case of `CCCC1([C@H](O)C/C=C/[C@H]2[C@H](O)CC(=O)[C@@H]2CCCCCCC(=O)OC)CCC1` [Butaprost], the cell growth [3] is given as “increased lung carcinoma cell growth”.
For `CN(CCOc1ccc(C[C@H](Nc2ccccc2C(=O)c2ccccc2)C(=O)O)cc1)c1ccccn1` [GW1929], the “EP2 mRNA and protein levels” value [3] is given as “significant decrease” and the cell growth [3] is given as “inhibition of cell growth”.
In the case of `O=C(Nc1ccccc1)c1cc([N+](=O)[O-])ccc1Cl` [GW9662, 2-chloro-5-nitro-N-henylbenzamide], the “growth of tumour cell lines” value [4] is given as “inhibited growth”, the rosiglitazone-induced growth inhibition ([4]; combination with rosiglitazone) is given as “enhanced rather than reversed” and the “abrogation of suppression of HSC collagen by 15dPGJ(2)” value ([5]; concomitant treatment) is given as 70%. The “15-deoxy-PGJ2-induced cell growth inhibition” value [6] was “reversed” and the “activation of PPARgamma” value [7] was “prevented activation of PPARgamma”.
For `[Cl-].[K+]` [KCl], the “change in resting tone” value ([8]; glucose-PSS) is given as -0.8 ± 0.8 g, the “change in resting tone” value ([8]; lactate-PSS) is given as 1.5 ± 0.7 g and the “change in resting tone” value ([8]; pyruvate-PSS) is given as -2.1 ± 0.8 g.
In the case of `NC(=O)c1ccc[n+]([C@@H]2O[C@H](COP(=O)([O-])OP(=O)(O)OC[C@H]3O[C@@H](n4cnc5c(N)ncnc54)[C@H](O)[C@@H]3O)[C@@H](O)[C@H]2O)c1` [NAD(+)], the “translocation of the apoptosis-inducing factor from mitochondria to nuclei” value [9] is listed as “blocked translocation”, the “glycolytic capacity and cell death” value ([9]; 10 mM extracellular NAD(+) after MNNG exposure) is listed as “completely restored glycolytic capacity and prevented cell death” and the “MPT and cell death” value [9] is listed as “blocked both MPT and cell death”.
For `COc1cccc(-c2cc(=O)c3ccccc3o2)c1N` [PD98059, 2′-amino-3′-methoxyflavone], the “15-deoxy-PGJ2-induced cell growth inhibition” value [6] is given as “significantly prevented”.
For `CCCCC/C=C/C=C1/C(=O)C=C[C@@H]1C/C=C\CCCC(=O)O` [PGJ2, 15-deoxy-Delta12,14-prostaglandin J2], the “EP2 mRNA and protein levels” value [3] is given as “significant decrease”, the cell growth [3] is given as “inhibition of cell growth” and the “nitrotyrosine formation and ICAM-1 upregulation during reperfusion” value (0.3 mg kg-1 i.v.) is given as “markedly reduced”. The “fall in mean arterial blood pressure, mortality rate, MPO activity, MDA levels, TNF-alpha and IL-1 beta, histological gut injury” value (0.3 mg kg-1 i.v. 30 min prior to ischaemia) was “significantly reduced”, the “alpha1 (I) procollagen promoter activity” value [5] was “inhibited” and the “HSC DNA and collagen synthesis” value ([5]; 10 microm 15dPGJ(2), 0.1 approximately 10 microm BRL49653, WY14643 >100 microm, not <10 microm) was “inhibited DNA and collagen synthesis without affecting the cell viability”. For the same molecule, the induction of apoptosis [6] was “increased the induction of apoptosis in a dose-dependent manner”, the cell growth ([6]; both cells) was “inhibited cell growth in time- and dose-dependent manners” and the proliferation [10] was “inhibited proliferation”. The “IL-1, IL-6 and TNFalpha secretion” value [11] was “inhibitory effect” and the IL-1Ra production [11] was “increasing IL-1Ra production”.
In the case of `O=S(=O)(c1ccccc1)N(CC(F)(F)F)c1ccc(C(O)(C(F)(F)F)C(F)(F)F)cc1` [T0901317], the “suppressive effects of LXRs on PPARa-induced PPRE-luciferase activity” value [1] is given as “dose dependently enhanced”.
For `NC(=O)c1ccccc1` [benzamide], the “NAD(+) depletion resulting from PARP1 activation” value [12] is given as “prevented the NAD(+) depletion”, the “poly(ADP-ribose) accumulation” value [12] is given as “decrease” and the Cell death [12] is given as “markedly reduced”.
In the case of `O=C(OC[C@H]1O[C@@H](OC(=O)c2cc(O)c(O)c(OC(=O)c3cc(O)c(O)c(O)c3)c2)[C@H](OC(=O)c2cc(O)c(O)c(OC(=O)c3cc(O)c(O)c(O)c3)c2)[C@@H](OC(=O)c2cc(O)c(O)c(OC(=O)c3cc(O)c(O)c(O)c3)c2)[C@@H]1OC(=O)c1cc(O)c(O)c(OC(=O)c2cc(O)c(O)c(O)c2)c1)c1cc(O)c(O)c(OC(=O)c2cc(O)c(O)c(O)c2)c1` [gallotannin], the “NAD(+) depletion resulting from PARP1 activation” value [12] is given as “prevented the NAD(+) depletion”, the “poly(ADP-ribose) accumulation” value [12] is given as “increase” and the Cell death [12] is given as “equally reduced”.
For `CC(C)=CCC(=O)C1(O)C(O)=C(C(=O)C(C)C)C(=O)C1CC=C(C)C` (stereo not shown) [isocohumulone], the “activation of PPARalpha” value [13] is given as “activate” and the “activation of PPARgamma” value [14] is given as “activate”.
For `CC(C)=CCC(=O)C1(O)C(O)=C(C(=O)CC(C)C)C(=O)C1CC=C(C)C` (stereo not shown) [isohumulone], the “body weight increase versus control group” value [15] is given as “did not result in significant body weight gain”, the “reduced plasma free fatty acid level” value [15] is given as 73.1% and the “reduced plasma glucose level” value [15] is given as 65.3%. For the same molecule, the “reduced plasma triglyceride level” value [15] was 62.6%, the “activation of PPARalpha” value [13] was “activate” and the “activation of PPARgamma” value [14] was “activate”.
In the case of `CC(O)C(=O)O` (stereo not shown) [lactate], the “increase of O2 consumption” value ([8]; 10 mm in PSS) is listed as “without effect”.
For `CN(C)C(=N)N=C(N)N` [metformin], the “HbA1c, insulin, and free fatty acid concentrations” value ([16]; 8 mg rosiglitazone or 2 g metformin, 16 weeks) is given as “similarly decreased”, the “Body weight at 16 weeks” value ([16]; 2 g metformin, baseline 84+/−4, P<0.05) is given as 82 ± 4 kg and the “Serum adiponectin concentrations, increase” value ([16]; 16 weeks) is given as “remained unchanged”. For the same molecule, the “Liver fat (proton spectroscopy) at 16 weeks” value ([16]; baseline 15+/−3 rosiglitazone, 13+/−3 metformin) was 14+/−3%.
For `COC(=O)C(C)=O` [methyl pyruvate], the ATP production [17] is given as “higher”, the “cation current across the inner membrane” value [18] is given as “directly inhibited” and the “NAD(P)H autofluorescence, ATP production, ATP/ADP ratio” value [19] is given as “slightly decreased NAD(P)H autofluorescence and did not influence ATP production or the ATP/ADP ratio”. The “cytosolic free Ca(2+) concentration” value [19] was “increased the cytosolic free Ca(2+) concentration after an initial decrease”, the “increase in insulin secretion relative to that induced by glucose” value [19] was 6 fold and the electrical activity ([19]; 0.5 mM glucose) was “elicited electrical activity”. For the same molecule, the beta-cell membrane depolarization ([19]; 5-20 mM) was “depolarized the beta-cell in a concentration-dependent manner”, the “concentration of maximal effect on insulin secretion” value ([19]; absence of glucose) was 5 mM and the insulin secretion ([19]; absence of glucose, pyruvate 5-20 mM) was “stimulated insulin secretion”. For the same molecule, the “insulin secretion and KATP block” value ([19]; islets) was “block of KATP”, the “ATP/ADP ratio in whole islets” value ([19]; pyruvate 5 mM, MP 5 mM, glucose 20 mM) was “no effect” and the “NADH and NADPH response” value [20] was “stimulated a robust NADH and NADPH response”. The mitochondrial alkalinization [21] was “more marked mitochondrial alkalinization than pyruvate”, the “mitochondrial metabolism compared with pyruvate” value [21] was “more efficient than pyruvate” and the insulin release ([21]; D-glucose 16.7 mM and/or ester 20.0 mM) was “negative insulinotropic action”. For the same molecule, the insulin release ([21]; D-glucose 2.8 to 8.3 mM, ester not exceeding 1 0.0 mM) was “positive insulinotropic action” and the “K(ATP) current” value [22] was “inhibited the K(ATP) current”.
In the case of `O=C(O)c1c(Sc2ccccc2)c2cc(Cl)ccc2n1Cc1ccc(Cl)cc1` [nTZDpa], the apoptosis [23] is listed as “induce caspase-mediated apoptosis” and the “vascular smooth muscle cell growth” value [24] is listed as “inhibited vascular smooth muscle cell growth”.
For `CCCCCCCC(=O)O` [octanoate], the “adverse energetic effects of malate-aspartate shuttle inhibition” value [25] is given as “normalized”.
For `CN(CCOc1ccc(CC2SC(=O)NC2=O)cc1)c1ccccn1` (stereo not shown) [rosiglitazone], the “blood counts, viral loads, CD4 counts” value [26] is listed as “no significant changes”.
For cyclosporin A, the “translocation of the apoptosis-inducing factor from mitochondria to nuclei” value [9] is given as “blocked translocation” and the “MPT and cell death” value [9] is given as “blocked MPT and cell death”.
In the case of nobotanin B, the Cell death [12] is listed as “equally reduced”.
